Measured values taken from patent US11083196B2, “Microbiocidal oxadiazole derivatives” (SYNGENTA PARTICIPATIONS AG, priority 2016, dated 2021).

Experiments:
[1] = tested on: Glomerella lagenarium (Colletotrichum lagenarium); experiment: Fungicidal activity against Glomerella lagenarium (Colletotrichum lagenarium), liquid culture / cucumber / preventative (anthracnose); assay type: cell-based; conditions: Colletotrichum orbiculare, liquid culture (PDB), growth inhibition measured photometrically 3-4 days after application, compared to untreated control
In short: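 Glomerella lagenarium conidia in potato dextrose broth were exposed in 96-well plates to test compound diluted from DMSO stock with 0.025% Tween20 and incubated at 24 °C. Growth inhibition was read photometrically 3–4 days after application, as percent activity relative to untreated check.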

[2] = tested on: Phakopsora pachyrhizi; experiment: Fungicidal activity against Phakopsora pachyrhizi / soybean / leaf disc preventative (Asian soybean rust); assay type: in vivo; conditions: foliar, 288 h, soybean leaf disks, inoculated one day after application, assessed 12-14 days after application, compared to untreated control
Experimental: Leaf disks or leaf segments of various plant species are cut from plants grown in a greenhouse. The cut leaf disks or segments are placed in multiwell plates (24-well format) onto water agar. The leaf disks are sprayed with a test solution before (preventative) or after (curative) inoculation. Compounds to be tested are prepared as DMSO solutions (max. 10 mg/ml) which are diluted to the appropriate concentration with 0.025% Tween20 just before spraying. The inoculated leaf disks or segments are incubated under defined conditions (temperature, relative humidity, light, etc.) according to the respective test system. A single evaluation of disease level is carried out 3 to 14 days after inoculation, depending on the pathosystem. Percent disease control relative to the untreated check leaf disks or segments is then calculated. Soybean leaf disks are placed on water agar in multiwell plates (24-well format) and sprayed with the formulated test compound diluted in water. One day after application leaf discs are inoculated by spraying a spore suspension on the lower leaf surface. After an incubation period in a climate cabinet of 24-36 hours in darkness at 20° C. and 75% rh leaf disc are kept at 20° C. with 12 h light/day and 75% rh. The activity of a compound is assessed as percent disease control compared to untreated when an appropriate level of disease damage appears in untreated check leaf disks (12-14 days after application).

[3] = tested on: Puccinia recondita f. sp. tritici; experiment: Fungicidal activity against Puccinia recondita f. sp. tritici / wheat / leaf disc curative (brown rust); assay type: in vivo; conditions: foliar, 144 h, wheat leaf segments cv. Kanzler, applied 1 day after inoculation, assessed 6-8 days after application, compared to untreated control
Experimental: Leaf disks or leaf segments of various plant species are cut from plants grown in a greenhouse. The cut leaf disks or segments are placed in multiwell plates (24-well format) onto water agar. The leaf disks are sprayed with a test solution before (preventative) or after (curative) inoculation. Compounds to be tested are prepared as DMSO solutions (max. 10 mg/ml) which are diluted to the appropriate concentration with 0.025% Tween20 just before spraying. The inoculated leaf disks or segments are incubated under defined conditions (temperature, relative humidity, light, etc.) according to the respective test system. A single evaluation of disease level is carried out 3 to 14 days after inoculation, depending on the pathosystem. Percent disease control relative to the untreated check leaf disks or segments is then calculated. Wheat leaf segments cv. Kanzler are placed on agar in multiwell plates (24-well format). The leaf segments are inoculated with a spore suspension of the fungus. Plates are stored in darkness at 19° C. and 75% rh. The formulated test compound diluted in water is applied 1 day after inoculation. The leaf segments are incubated at 19° C. and 75% rh under a light regime of 12 h light/12 h darkness in a climate cabinet and the activity of a compound is assessed as percent disease control compared to untreated when an appropriate level of disease damage appears in untreated check leaf segments (6-8 days after application).

[4] = tested on: Puccinia recondita f. sp. tritici; experiment: Fungicidal activity against Puccinia recondita f. sp. tritici / wheat / leaf disc preventative (brown rust); assay type: in vivo; conditions: foliar, 168 h, wheat leaf segments cv. Kanzler, inoculated 1 day after application, assessed 7-9 days after application, compared to untreated control
In short: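 Wheat leaf segments (cv. Kanzler) on water agar sprayed with compound diluted from DMSO stock in water/0.025% Tween20, then inoculated with P. recondita spores 1 day later. Incubated at 19 °C, 75% rh, 12 h light/dark. Percent disease control versus untreated assessed 7-9 days after application.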

SMILES | inhibition of growth at 20 ppm [1] | pest or weed control at 200 ppm [2] | pest or weed control at 200 ppm [3] | pest or weed control at 200 ppm [4] | melting point
COCC1=NOC(c2ccc(-c3noc(C(F)(F)F)n3)cc2)C1 (stereo not drawn) [Compound A-9, 3-[4-[3-(methoxymethyl)-4,5-dihydroisoxazol-5-yl]phenyl]-5-(trifluoromethyl)-1,2,4-oxadiazole] | ≥ 80% | ≥ 80% | ≥ 80% | ≥ 80% | 59 to 63 °C
CC1(C)CN=C(c2ccc(-c3noc(C(F)(F)F)n3)cc2)O1 [Compound A-21, 3-[4-(5,5-dimethyl-4H-oxazol-2-yl)phenyl]-5-(trifluoromethyl)-1,2,4-oxadiazole] | ≥ 80% | ≥ 80% | ≥ 80% | ≥ 80% | 178 to 180 °C
FC(F)(F)c1nc(-c2ccc(-c3ccnc(Cl)c3)cc2)no1 [Compound D-26, 3-[4-(2-chloro-4-pyridyl)phenyl]-5-(trifluoromethyl)-1,2,4-oxadiazole] | ≥ 80% | ≥ 80% | ≥ 80% | ≥ 80% | 110 to 115 °C
